“Also recorded” adds a separate entry of the source.
Legend:
Type in all cases: cell-based
Ptchd1 KO TRN neurons = assay: Whole-cell patch-clamp rebound burst firing in acute brain slices, Ptchd1 KO mice; settings: LY379268 1 μM, holding potentials −85 mV to −50 mV
Experimental: (§1) For conducting slice electrophysiology analysis, whole-cell patch-clamp recordings were performed using horizontal slices for the rebound bursting assays and angled-coronal thalamocortical slices for the synaptic optogenetics experiments (Agmon et al., 1991). 21-35 day old male C57BL6 mice and Ptchd1 Y/− (knockout) mice were used. Animals were transcardially perfused under isoflurane anesthesia with an ice-cold cutting solution (194 mM Sucrose, 30 mM NaCl, 4.5 mM KCl, 1.2 mM NaH2PO4, 10 mM Glucose, 2 mM MgCl2, 0.2 mM CaCl2, and 26 mM NaHCO3). Mice were then decapitated and the brains were carefully dissected out. Both cerebellum and olfactory bulb were removed from the brain and were placed and glued onto the stage of a Leica Vibratome with the ventral surface down and the pial surface towards the blade. 250 micron thick slices containing the TRN were then collected and recovered in regular artificial cerebrospinal fluid (aCSF; 119 mM NaCl, 2.3 mM KCl, 1 mM NaH2PO4; 11 mM Glucose, 1.3 mM MgCl2, 2.5 mM CaCl2), 26 mM NaHCO3) heated to 32° C. for 10 minutes and then at room temperature for at least 1 hr. All buffers were continuously bubbled with 95% O2/5% C02. Slices were then transferred to a submersion recording chamber where they were perfused with aCSF at a rate of 2 ml/min at room temperature. […]

WT TRN neurons = assay: Whole-cell patch-clamp rebound burst firing in acute brain slices, WT mice
Experimental: For conducting slice electrophysiology analysis, whole-cell patch-clamp recordings were performed using horizontal slices for the rebound bursting assays and angled-coronal thalamocortical slices for the synaptic optogenetics experiments (Agmon et al., 1991). 21-35 day old male C57BL6 mice and Ptchd1 Y/− (knockout) mice were used. Animals were transcardially perfused under isoflurane anesthesia with an ice-cold cutting solution (194 mM Sucrose, 30 mM NaCl, 4.5 mM KCl, 1.2 mM NaH2PO4, 10 mM Glucose, 2 mM MgCl2, 0.2 mM CaCl2, and 26 mM NaHCO3). Mice were then decapitated and the brains were carefully dissected out. Both cerebellum and olfactory bulb were removed from the brain and were placed and glued onto the stage of a Leica Vibratome with the ventral surface down and the pial surface towards the blade. 250 micron thick slices containing the TRN were then collected and recovered in regular artificial cerebrospinal fluid (aCSF; 119 mM NaCl, 2.3 mM KCl, 1 mM NaH2PO4; 11 mM Glucose, 1.3 mM MgCl2, 2.5 mM CaCl2), 26 mM NaHCO3) heated to 32° C. for 10 minutes and then at room temperature for at least 1 hr. All buffers were continuously bubbled with 95% O2/5% C02. Slices were then transferred to a submersion recording chamber where they were perfused with aCSF at a rate of 2 ml/min at room temperature. Patch recording pipettes were pulled using a Flaming/Brown micropipette puller (Sutter Instruments) and Borosilicate glass (KG33, King Precision Glass). The DC resistances were ˜4-6 MΩ. Potassium methanesulfonate based internal solution (140 mM KMeSO3; 10 mM KCl; 10 mM HEPES; 0.1 mM EGTA; 4 mM Mg-ATP; 0.2 mM Na-GTP; 10 mM hosphocreatine) was used. Neurons were visualized using infrared differential interference contrast (IR-DIC) microscopy (Olympus, BX51W1) with an upright microscope digital camera.
The recordings were made with a microelectrode amplifier with bridge and voltage clamp modes of operation (Multiclamp 700B, Molecular Devices, San Jose, Calif., USA). Signals were low-pass filtered at 2 kHz and sampled at 10-20 kHz with a Digidata 1440A (Molecular Devices, San Jose, Calif., USA). Data were stored on a computer for subsequent off-line analysis. Cells with the series resistance (Rs, typically 8-12 MΩ) changed by >20% were excluded for data analysis. In addition, cells with Rs more than […] at any time during the recordings were discarded.

TRN neurons = assay: Spontaneous EPSC recordings from TRN neurons, Ptchd1 KO mice; settings: LY379268, with PTX
Experimental: as §1

Compound: N[C@@]1(C(=O)O)COC2C(C(=O)O)C21 (stereo in doubt) [LY379268, (1R,4R,5S,6R)-4-Amino-2-oxabicyclo[3.1.0] hexane-4,6-dicarboxylic acid]
- number of rebound burst firings (Ptchd1 KO TRN neurons): significantly increased the number of rebound repetitive bursting; also recorded: significantly increased the number of rebound burst firings; also recorded: Significant changes were found between −72 mV and −67 mV holding potential
- rebound burst firing, occlusion experiment (WT TRN neurons; LY379268 applied in the presence of (after pretreatment with) ML337): no change in repetitive bursting; also recorded: occluded in the presence of ML337
- number of rebound burst firings (WT TRN neurons; WT TRN neurons, LY379268 1 μM, after somatic hyperpolarization pulse, holding potentials −80 mV to −50 mV): significant increase in the repetitive rebound bursting; also recorded: increase in the number of rebound burst firings; also recorded: Significant changes were detected in a membrane holding potentials between −70 mV and −60 mV; also recorded: Significant changes were detected at membrane holding potentials as indicated
- frequency of sEPSCs (TRN neurons): significantly reduced the frequency

Reference: patent US20220313650A1, “METHODS FOR TREATING NEURODEVELOPMENTAL DISORDERS” (The Broad Institute, Inc., priority 2019, published 2022)
